In patent US9034303B2, “Neuroprotective and neuro-restorative iron chelators and monoamine oxidase inhibitors and uses thereof” (priority 2010, dated 2015):
Like-named read-outs stand apart in the source and are kept apart here.

Columns and labels:
in vitro = conditions: human
Procedure: (§1) The cytotoxicity of compound 3 was assessed in vitro using two standard cell lines, HepG2, derived from a human hepatocellular carcinoma, and SH-SY5Y, derived from a human neuroblastoma, both in the presence and absence of excess iron.
(§2) HepG2 cells were maintained at ˜5% CO2, 37° C., and 95% relative humidity in minimal essential media (MEM) supplemented with 10% fetal bovine serum plus 0.1 mM non-essential amino acids, 2 mM L-glutamine, and penicillin/streptomycin. SH-SY5Y cells were maintained at ˜5% CO2, 37° C., and 95% relative humidity in a mixture of minimal essential media (MEM) and F12 K media (1:1, v:v) supplemented with 10% fetal bovine serum plus 0.1 mM non-essential amino acids, 2 mM L-glutamine, and penicillin/streptomycin. The cells were subcultured every two to three days and plated in tissue culture treated opaque white 96-well plates at a density of 1×10^4 cells/well and incubated at ˜5% CO2, 37° C., and 95% relative humidity overnight prior to initiation of the assay.
(§3) A series of DMSO stocks of the test article at 100× of the final concentration were diluted 1:100 with fresh culture media (final DMSO concentration was 1%). The media from the plated cells was removed and replaced with 100 μL of media containing test article or tamoxifen with final concentrations ranging between 0.01 to 1000 μM in triplicate. Wells containing no cells were used as background controls. Tamoxifen was used as a known positive control and DMSO alone was used as a vehicle control. The cells were incubated for four hours at ˜5% CO2, 37° C., and 95% relative humidity.
(§4) Cell viability was determined using a commercially available kit to determine ATP levels by luminescence. Briefly, the buffer and lyophilized substrate from the kit were equilibrated to room temperature. The buffer was used to reconstitute the substrate just prior to addition to the wells of the cell plate (100 μL per well). The plate was placed into the Tecan Infinite M200 plate reader, agitated for 10 minutes followed by a 10 minute wait period, then read using an integration time of 0.5 seconds with no attenuation.
(§5) The mean luminescence from the test article treated cells was compared to that treated by DMSO only.

SHSY-5Y cells = assay: in vitro; conditions: read-out: LC50 (μM) SHSY-5Y; four hours incubation
Procedure: as §1, §2, §3, §4, §5

[1] = Plasma stability in vitro in human blood plasma (LC-MS/MS); format: in vitro ADME; conditions: 10 μM, ~37° C.
Procedure: The stability of the compound 3 was evaluated in human blood plasma. Human plasma was purchased from a commercial source (Bioreclamation, Inc., East Meadow, N.Y.). The plasma was prepared from blood collected using sodium fluoride/potassium oxalate as the anticoagulant. The plasma was stored at −20° C. prior to use. The plasma, once thawed for use, was centrifuged at ˜4000 rpm for five minutes and transferred to a new tube to remove any precipitate. The pH of the plasma was adjusted to 7.4. Compound 3 was added to plasma samples to achieve a final concentration of 10 μM and distributed into the required number of low retention tubes (triplicate tubes for each timepoint) for incubation at ˜37° C. in a water bath. Incubations were terminated at 0, 1, and 6 hours by the addition of three volumes of cold acetonitrile. The supernate after centrifugation was subjected to LC-MS/MS analysis. Stability of the test article was assessed by comparison of the peak area at one and six hours to that at time zero.

MAO-A = MAO-A (Mus musculus (Mouse), UniProt Q64133); format: in vivo, mice
Procedure: For the MAO-inhibition study, mice (6 mice in each group) were injected intraperitoneally (i.p.) with compound 3 at the dosage of 5 or 10 mg/kg; or with M30 at the dosage of 10 mg/kg. Control mice received saline (0.1 mL) i.p. One hour later the mice were killed by cervical dislocation, while striatum and small intestine were removed rapidly and frozen in liquid nitrogen for further analysis. FIGS. 3 and 4 show MAO-A/MAO-B in vivo activity of compound 3 compared to the activity of M30. FIG. 3 presents an MAO inhibition in striatum, and FIG. 4 presents an MAO inhibition in intestine. The percent inhibition was computed based on comparison to control animals.

rat brain MAO-A = rat brain MAO-A (Rattus norvegicus (Rat), UniProt P21396); assay: In vitro inhibition of rat brain MAO-A (14C-5-HT substrate); format: biochemical
Procedure: Rats are decapitated and the brains quickly taken into a weighted ice-cold sucrose buffer (0.32 M) and their weights determined. All subsequent procedures are performed at 0° C. The brains are homogenized in 0.32 M sucrose (one part tissue to 20 parts sucrose) in a Teflon glass homogenizer followed by the addition of sucrose buffer to a final concentration of 10% homogenate. The homogenates are centrifuged at 600 g for 15 min. The supernatant fractions are taken out and centrifuged at 4500 g for 30 min, the pellet diluted in 0.32 M sucrose buffer and kept frozen for later assaying of MAO. Protein concentration is determined with Bradford reagent at λ=595 nm, using BSA as a standard.
MAO-A and MAO-B activities are determined in rat brain homogenate in vitro following incubation with varying concentrations of the test compounds.
The activity of MAO-A and MAO-B was determined by the adapted method of Tipton & Youdim (Tipton K F, O'Sullivan J, Youdim M B, 1983, Encyclopedia of Neuroscience, 2004, G. Adelman and B. H. Smith, Elsevier). The test compound was added to a suitable dilution of the enzyme preparation (70 μg protein for MAO-B and 150 μg MAO-A assay) in 0.1 M phosphate buffer (pH 7.4). The mixture was incubated together with […], a specific inhibitor of MAO-B (for determination of MAO-A) or 0.05 M clorgylin, a specific inhibitor of MAO-A (for determination of MAO-B). Incubation was carried for 0.5 or 1 h at 37° C. before addition of ^14C-5-hydroxytryptamine binoxalate (5-HT) (100 or 400 μM) for determination of MAO-A, or ^14C-phenylethylamine (^14C-PEA) 100 or 400 μM for determination of MAO-B, and incubation continued for 30 min or 20 min, respectively. The reaction was stopped with 2 M ice-cold citric acid, and the metabolites were extracted and determined by liquid-scintillation counting in cpm units. […]
MAO-A and MAO-B activity was measured using radioactive substrates. The substrate for MAO-A was 5 HT and for MAO-B was PEA. When measuring the activity of MAO-A, the MAO-B activity was inhibited with deprenyl and when measuring the activity of MAO-B the activity of MAO-A was inhibited with clorgylin. Blank samples were produced using TCP to inhibit both of the enzymes. The metabolites were extracted to toluene and read in a β-counter. The results are expressed in relative activity and normalized to the amount of protein in the tissue.

Chain of rat brain MAO-A (P21396 whole entry): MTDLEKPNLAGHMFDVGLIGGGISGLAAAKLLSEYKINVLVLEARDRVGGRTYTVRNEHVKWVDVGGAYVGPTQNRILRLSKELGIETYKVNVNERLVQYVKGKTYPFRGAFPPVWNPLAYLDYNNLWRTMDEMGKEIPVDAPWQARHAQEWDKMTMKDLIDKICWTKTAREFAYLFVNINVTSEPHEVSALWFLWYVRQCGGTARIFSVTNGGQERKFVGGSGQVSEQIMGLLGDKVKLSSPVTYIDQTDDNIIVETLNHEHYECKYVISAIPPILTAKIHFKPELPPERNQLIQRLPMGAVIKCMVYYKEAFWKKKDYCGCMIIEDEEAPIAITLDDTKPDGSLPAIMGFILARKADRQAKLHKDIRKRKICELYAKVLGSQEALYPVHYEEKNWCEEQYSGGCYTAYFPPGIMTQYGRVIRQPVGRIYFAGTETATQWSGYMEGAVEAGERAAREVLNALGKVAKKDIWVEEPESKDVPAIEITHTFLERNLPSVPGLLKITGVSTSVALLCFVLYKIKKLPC
Chain of MAO-A (Q64133 whole entry): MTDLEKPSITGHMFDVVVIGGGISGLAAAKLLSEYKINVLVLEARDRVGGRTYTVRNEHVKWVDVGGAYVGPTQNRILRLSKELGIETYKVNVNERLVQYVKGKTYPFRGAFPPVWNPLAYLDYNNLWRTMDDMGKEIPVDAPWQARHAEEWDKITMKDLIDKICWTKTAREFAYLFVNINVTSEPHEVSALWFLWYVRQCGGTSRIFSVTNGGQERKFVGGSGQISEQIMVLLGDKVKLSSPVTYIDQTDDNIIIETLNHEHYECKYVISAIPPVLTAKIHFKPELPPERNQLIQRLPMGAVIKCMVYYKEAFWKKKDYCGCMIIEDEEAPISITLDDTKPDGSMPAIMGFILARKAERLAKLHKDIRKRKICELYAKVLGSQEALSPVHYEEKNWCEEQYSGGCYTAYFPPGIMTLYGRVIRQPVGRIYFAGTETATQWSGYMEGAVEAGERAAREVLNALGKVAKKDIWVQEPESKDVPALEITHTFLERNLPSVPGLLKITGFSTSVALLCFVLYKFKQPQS

## C#CCN(C)CCc1ccc(O)c2ncccc12 [Compound 3, 5-[2-(methyl-2-propyn-1-ylamino)ethyl]-8-quinolinol]
In vitro
  CC50 at 4 h: > 1000 µM
In vitro; LC50 (μM) SHSY-5Y, four hours incubation
  CC50 at 4 h: 865 µM
SHSY-5Y cells
  CC50: 885 µM
[1]; 0 hour, reference time point
  Amount of compound 3 in human blood plasma: 100%
[1]; 1 hour
  Amount of compound 3 in human blood plasma: 86%
[1]; 6 hours
  Amount of compound 3 in human blood plasma: 93%
MAO-A; mice, single i.p. injection, 5 or 10 mg/kg, one hour later
  MAO-A inhibition in striatum: inhibited in a dose responsive fashion
MAO-A; mice, single i.p. injection, small intestine, one hour later
  MAO-A inhibition in intestine: Reduced inhibition in the intestinal tissue versus striatal tissue
MAO-A; mouse, in vivo, ip
  Penetration of brain tissue: able to penetrate brain tissue
Rat brain MAO-A
  IC50: 0.07 to 0.09 µM
Rat brain MAO-A; rat brain
  Inhibition of rat brain MAO-A in vitro (in words): potent inhibitors
Rat brain MAO-A; read-out: MAO-A IC50, estimated from the data in FIG. 1, rat brain MAO-A
  IC50: 0.07 to 0.09 µM
